In this assay the test system is WistarF/Han (WF) rats. The assay can be described thus: Social interaction (SI) test of anxiety, combined i.c.v. treatment (Example 3). It is filed as in vivo. To be noted: isoleucyl thiazolidine alone 5pmol-500nmol, Fig. 7. As to the method: Animals. Male WistarF/Han (WF) rats (Central Animal Laboratory, Hannover Medical School, Hannover, Germany, see http://www.mh-hannover.de/institut/tierlabor/wf.htm for details), weighing 330-370g, were housed in a sound-proof, temperature controlled (24.0±0.5°C) room under specific pathogen free conditions with a 12/12h dark/light cycle (lights on at 07.00 with illumination level of 80 Lux). Food (Altromin lab chow pellets) and tap water were available ad libitum. Under ketamine/xylasine (100/5 mg/kg, i.p.) anesthesia, the rats were fixed in a Kopf stereotaxic frame and implanted with cannulae (Plastic One, Inc., Roanoke, VA, USA) above the lateral ventricle. […]
Animals were randomly divided into two sets of four experimental groups (n=5-6/group), which completed different consecutive SI test of anxiety. […] The time spent in active social interaction (SI-time), 1h and 12h food-intake were measured. […]
Social interaction (SI) test. […] Behavior was monitored using a video camera placed above the field inside the testing/isolation box. The SI behavior of both rats was recorded on-line from a monitor placed outside on top of the box. The following parameters were scored by an observer (HPN) unaware of the substrain of rats: duration of time spent in sniffing, following, crawling under and over other rats, but not passive body contact (resting, sleeping). […]

From patent EP1891948A1, “Treatment of neurological and neuropsychological disorders” (Probiodrug AG, priority 2000, dated 2002) come the findings set out here.

The structures appear in SMILES notation.

`CCC(C)C(N)C(=O)N1CCSC1` (stereo not shown) [isoleucyl thiazolidine]: the “time spent in active social interaction (SI-time)” value is “"bell-shaped" dose-dependent anxiolytic-like effects”.
